# Results: ChEMBL document CHEMBL1153028, “QSAR study on maximal inhibition (Imax) of quaternary ammonium antagonists for S-(-)-nicotine-evoked dopamine release from dopaminergic nerve terminals in rat striatum” (Bioorg Med Chem, 2009)
# Numbered stars: 1 amine (or outer) side, 2 acyl side, 3 side chain; on linkers, the order of the positions; unused ones are H or OH. Bridge positions count the residues as written; N and C are the ends. Peptide text beside a SMILES is read from it. X1 = NC(=O)[C@@H](CN[*:2])CS[*:1]
# System: not listed separately
# Assay: Antagonist activity at nAChR in Sprague-Dawley rat striatal slices assessed as inhibition of S(-)-nicotine-evoked [3H]dopamine overflow at 100 uM by liquid scintillation counting
# Assay type: functional
row,SMILES,Imax [%]
1,CCCCCCCCCCC[n+]1cccc2c1CC[C@@H]1CCN(C)[C@H]21.[I-],79
2,CCCCCCCCC[n+]1cccc2c1CC[C@@H]1CCN(C)[C@H]21.[I-],86
3,[Br-].[Br-].c1cc[n+](CCCCCCCCC[n+]2ccccc2)cc1,28
4,CCCCCCCC[n+]1ccccc1.[I-],0
5,C=CC[n+]1cccc([C@@H]2CCCN2C)c1.[I-],0
6,CCCCCCCC[n+]1cccc([C@@H]2CCCN2C)c1.[I-],88
7,Cc1ccc[n+](CCCCCC[n+]2cccc(C)c2)c1.[I-].[I-],7
8,[I-].[I-].c1ccc2c(c1)ccc[n+]2CCCCCCCC[n+]1cccc2ccccc21,71
9,CCCCCCCCCCC[n+]1ccc2c(c1)[C@H]1[C@@H](CC2)CCN1C.[I-],72
10,CCCCCCCCCCCC[n+]1cccc2c1CC[C@@H]1CCN(C)[C@H]21.[I-],25
11,CCCCC[n+]1ccccc1.[I-],44
12,CCCC[n+]1cccc([C@@H]2CCCN2C)c1.[I-],80
13,[I-].[I-].c1ccc2c[n+](CCCCCC[n+]3ccc4ccccc4c3)ccc2c1,47
14,C=CCCCCCCCCC[n+]1cccc([C@@H]2CCCN2C)c1.[Br-],87
15,CCCCCCCCCCCCCCCCCCCC[n+]1ccccc1.[Br-],60
16,CCCCCCCCC[n+]1ccc2c(c1)[C@H]1[C@@H](CC2)CCN1C.[I-],56
17,[I-].[I-].c1ccc2c(c1)ccc[n+]2CCCCCC[n+]1cccc2ccccc21,55
18,C[n+]1ccccc1.[I-],0
19,CCCCC#CCC[n+]1cccc([C@@H]2CCCN2C)c1.[Br-],47
20,CCCCCCC[n+]1cccc([C@@H]2CCCN2C)c1.[I-],75
21,C=CCCCCCCCC[n+]1cccc([C@@H]2CCCN2C)c1.[Br-],72
22,CCCCCC[n+]1cccc([C@@H]2CCCN2C)c1.[I-],80
23,CC[n+]1ccccc1.[I-],0
24,[I-].[I-].c1ccc2c[n+](CCCCCCCCCC[n+]3ccc4ccccc4c3)ccc2c1,65

row,SMILES,Imax [%]
1,CCCCCCCC[n+]1ccc2c(c1)[C@H]1[C@@H](CC2)CCN1C.[I-],60
2,[Br-].[Br-].c1ccc2c[n+](CCCCCCCCCCC[n+]3ccc4ccccc4c3)ccc2c1,55
3,CCCCCCCCCCCCCCC[n+]1ccccc1.[I-],58
4,CCCCCCCCC[n+]1cccc([C@@H]2CCCN2C)c1.[I-],100
5,CCCCCCCCCCCC[n+]1ccc2c(c1)[C@H]1[C@@H](CC2)CCN1C.[I-],62
6,CCCCCCCCCC[n+]1cccc2c1CC[C@@H]1CCN(C)[C@H]21.[I-],93
7,CCCCCCCCCC[n+]1cccc(C)c1.[I-],73
8,[Br-].[Br-].c1ccc2c[n+](CCCCCCCCCCCC[n+]3ccc4ccccc4c3)ccc2c1,53
9,CCC[n+]1ccccc1.[I-],22
10,CCCCCCCCCC[n+]1ccc2c(c1)[C@H]1[C@@H](CC2)CCN1C.[I-],67
11,CCCCCCC#CCC[n+]1cccc([C@@H]2CCCN2C)c1.[Br-],29
12,[I-].[I-].c1cc[n+](CCCCCCCCCC[n+]2ccccc2)cc1,27
13,CNC1(C)C2CCC(C2)C1(C)C (configuration not stated) [MECAMYLAMINE],91
14,CN1CCC[C@H]1c1ccc[n+](Cc2ccccc2)c1.[Br-],0
15,CCCC[n+]1ccccc1.[I-],2
16,CCCC/C=C/CC[n+]1cccc([C@@H]2CCCN2C)c1.[Br-],79
17,Cl.NC1CCCc2ccncc21 (configuration not stated),56
18,[I-].[I-].c1ccc2c(c1)ccc[n+]2CCCCCCCCCC[n+]1cccc2ccccc21,76
19,Cc1ccc[n+](CCCCCCCCCCC[n+]2cccc(C)c2)c1.[Br-].[Br-],68
20,CCCCCCCCCCCC[n+]1cccc([C@@H]2CCCN2C)c1.[I-],95
21,Cc1ccc[n+](CCCCCCCCC[n+]2cccc(C)c2)c1.[Br-].[Br-],63
22,[I-].[I-].c1ccc2c[n+](CCCCCCCC[n+]3ccc4ccccc4c3)ccc2c1,74
23,C=CCCCCCC[n+]1cccc([C@@H]2CCCN2C)c1.[Br-],87
24,CN1CCC[C@H]1c1ccc[n+](C)c1.[I-],0

row,SMILES,Imax [%]
1,Cc1ccc[n+](CCCCCCCCCCCC[n+]2cccc(C)c2)c1.[Br-].[Br-],78
2,CCCCCC[n+]1ccccc1.[I-],21
3,CN(C)C1CCCc2ccncc21.Cl (configuration not stated),68
4,Cc1ccc[n+](CCCCCCCCCC[n+]2cccc(C)c2)c1.[I-].[I-],63
5,CCCCCCCCCCCC[n+]1cccc(C)c1.[I-],63
6,[Br-].[Br-].c1cc[n+](CCCCCCCCCCCC[n+]2ccccc2)cc1,91
7,[I-].[I-].c1cc[n+](CCCCCCCC[n+]2ccccc2)cc1,0
8,Cc1ccc[n+](CCCCCCC[n+]2cccc(C)c2)c1.[Br-].[Br-],54
9,CCCC/C=C\CC[n+]1cccc([C@@H]2CCCN2C)c1.[Br-],83
10,[Br-].[Br-].c1ccc2c(c1)ccc[n+]2CCCCCCCCC[n+]1cccc2ccccc21,58
11,Cl.NC1CCCc2ncccc21 (configuration not stated),69
12,CNC1CCCc2ccncc21.Cl (configuration not stated),57
13,[Br-].[Br-].c1ccc2c(c1)ccc[n+]2CCCCCCCCCCCC[n+]1cccc2ccccc21,52
14,[I-].[I-].c1cc[n+](CCCCC[n+]2ccccc2)cc1,0
15,CCCCC/C=C/CCC[n+]1cccc([C@@H]2CCCN2C)c1.[Br-],85
16,CCCCCCC[n+]1ccccc1.[I-],0
17,CN1CCC[C@@H]1c1ccc[n+](CCCCCCCCCCCC[n+]2cccc([C@@H]3CCCN3C)c2)c1.[Br-].[Br-],38
18,Cc1ccc[n+](CCCCCCCC[n+]2cccc(C)c2)c1.[I-].[I-],53
19,CCCCCCCC[n+]1cccc2c1CC[C@@H]1CCN(C)[C@H]21.[I-],88
20,CCC[n+]1cccc([C@@H]2CCCN2C)c1.[I-],58
21,[Br-].[Br-].c1ccc2c[n+](CCCCCCCCC[n+]3ccc4ccccc4c3)ccc2c1,0
22,CN(C)C1CCCc2ncccc21.Cl (configuration not stated),53
23,CNC1CCCc2ncccc21.Cl (configuration not stated),87

# Target: Neuronal acetylcholine receptor subunit alpha-6 (Mus musculus) (UniProt Q9R0W9)
# Sequence (Q9R0W9 whole entry): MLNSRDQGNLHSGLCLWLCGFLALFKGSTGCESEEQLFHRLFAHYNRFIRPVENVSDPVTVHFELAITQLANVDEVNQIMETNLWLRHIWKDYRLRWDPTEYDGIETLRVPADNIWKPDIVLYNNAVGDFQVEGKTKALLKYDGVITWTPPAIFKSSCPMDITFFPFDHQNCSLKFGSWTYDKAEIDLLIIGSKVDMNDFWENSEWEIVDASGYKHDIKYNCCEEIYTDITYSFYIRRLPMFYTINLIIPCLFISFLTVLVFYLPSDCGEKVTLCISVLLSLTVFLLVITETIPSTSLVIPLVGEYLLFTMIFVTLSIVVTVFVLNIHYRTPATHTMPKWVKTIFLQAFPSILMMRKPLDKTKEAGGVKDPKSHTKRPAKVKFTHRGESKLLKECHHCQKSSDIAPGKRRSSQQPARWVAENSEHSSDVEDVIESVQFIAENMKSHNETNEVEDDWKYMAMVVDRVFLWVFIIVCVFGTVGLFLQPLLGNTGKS
# Assay: Displacement of [3H]epibatidine from nAChRalpha6 in mouse brain by autoradiography
# Assay type: tissue-based
row,SMILES,Imax [%]
1,CC(C)C[C@@H]1NC(=O)[C@H](CC(N)=O)NC(=O)[C@H](CO)NC(=O)[C@H](Cc2cnc[nH]2)NC(=O)[C@H](CCC(=O)O)NC(=O)[C@H](CC(C)C)NC(=O)[C@H](Cc2cnc[nH]2)NC(=O)[C@@H]2CSSC[C@H](NC(=O)CN)C(=O)N[C@@H](CSSC[C@@H](C(N)=O)CNC1=O)C(=O)N[C@@H](CO)C(=O)N[C@@H](CC(N)=O)C(=O)N1CCC[C@H]1C(=O)N[C@@H](C(C)C)C(=O)N2 (H-GCCSNPVCHLEHSNL; disulfide 2-8; linker 3-C via X1),62
